From patent publication US20240166684A1 (priority 2021, published 2024)
pIC50: −log10 of the molar value. “Also recorded” adds a separate entry of the source. Where two headings read alike, the source gives them in different places. Non-standard residues stand in square brackets, D forms with d. Residues, ends and D or L forms follow the SMILES beside them. *: point of attachment. Nle = CCCC[C@H](N)C(=O)O; Cbz = O=C(OCc1ccccc1)*

What was measured:
[1] = system: ATP1A1; type: cell-based, human
[2] = system: ATP1A2; type: cell-based, human
[3] = system: ATP1A3; type: cell-based, human
[4] = system: GFAP; type: cell-based, human
[5] = system: 5′-ectonucleotidase (5′-NT); type: cell-based, human
[6] = system: NKAs
[7] = system: PrP^C; details: for effect on steady-state PrP^C levels: 3-day exposure (FIG. 7), ouabain 20 nM; for effect of co-incubated inhibitor on ouabain-induced reduction in PrP^C levels: 25 nM ouabain or 20 nM ouabain
[8] = system: NKAs; details: cited from earlier work
[9] = system: NKAs; details: cited from earlier work; remark: listed apart in the source
[10] = system: PrP^C; details: literature screens; cited from earlier work
[11] = system: NKA β subunit; type: cell-based, human
[12] = system: class III beta tubulin (Tuj-1); type: cell-based, human
[13] = system: ReN VM cells; details: human
[14] = mouse, in vivo, sc
[15] = system: HeLa cells; details: cited from earlier work
[16] = cited from earlier work
[17] = system: ReN VM cells; test: cells; type: cell-based; details: Homo sapiens, 168 h, read-out: concentration at which metabolic activity dropped to 50%
[18] = system: ReN VM cells; test: cells; type: cell-based; details: Homo sapiens, 168 h, read-out: cellular toxicity: concentration at which ATP levels drop to 50% of mock-treated control
[19] = system: ReN VM cells; test: cells; type: cell-based, human
[20] = differentiated ReN VM cells, one-week exposure

Molecule: C[C@@H]1O[C@@H](O[C@H]2C[C@@H](O)[C@]3(CO)[C@H]4[C@H](O)C[C@]5(C)[C@@H](C6=CC(=O)OC6)CC[C@]5(O)[C@@H]4CC[C@]3(O)C2)[C@H](O)[C@H](O)[C@H]1O [ouabain]
- concentration at which ATP1A1 levels rebound / increase [1]: 50 nM
- concentrations causing reduction of steady-state ATP1A1 levels [1]: up to 30 nM
- effect on steady-state ATP1A1 levels [1]: reduction
- lowest concentration at which ATP1A1 reduction is apparent [1]: 3 nM
- effect on steady-state ATP1A2 levels [2]: reduction
- effect on steady-state ATP1A3 levels [3]: not affected
- effect on GFAP antibody-reactive bands [4]: an increase in the intensity levels of bands that were reactive toward GFAP-directed antibodies
- effect on steady-state 5′-NT levels [5]: increase
- reduction of total 86Rb+ uptake by complete block of NKAs [6]: 49%
- effect on steady-state PrP^C levels ([7]; ReN VM cells): reduction
- concentration at which PrP^C signal rebounds / migrates differently in SDS-PAGE [7, 20]: 50 nM
- lowest concentration at which PrP^C reduction is apparent [7, 20]: 3 nM
- pIC50 [8]: 7.39 to 7.82
- time to dissociate from NKAs [9]: less than two hours

Molecule: C=CC[C@@H]1/C=C(\C)C[C@H](C)C[C@H](OC)[C@H]2O[C@@](O)(C(=O)C(=O)N3CCCC[C@H]3C(=O)O[C@H](/C(C)=C/[C@@H]3CC[C@@H](O)[C@H](OC)C3)[C@H](C)[C@@H](O)CC1=O)[C@H](C)C[C@@H]2OC [Tacrolimus]
- effective concentrations for reducing PrP^C levels [10]: micromolar

Molecule: calpastatin
- effect of co-incubated inhibitor on ouabain-induced reduction in ATP1A1 levels [1]: did neither prevent
- effect of co-incubated inhibitor on ouabain-induced reduction in PrP^C levels [7]: did neither prevent

Molecule: CC(C)C[C@@H](C=O)NC(=O)[C@H](CC(C)C)NC(=O)[C@H](CC(C)C)NC(=O)OCc1ccccc1 [MG132] (Cbz-Leu-Leu-Leu-aldehyde)
- effect of co-incubated inhibitor on ouabain-induced reduction in ATP1A1 levels [1]: caused an increase in ATP1A1 steady-state levels
- effect of co-incubated inhibitor on ouabain-induced reduction in PrP^C levels [7]: failed to block

Molecule: COC1C[C@H](O[C@H]2CC[C@]3(C)C4CC[C@]5(C)[C@@H](C6=CC(=O)OC6)[C@@H](OC(C)=O)C[C@]5(O)[C@@H]4CC[C@@H]3C2)OC(C)C1=O (stereo partly drawn) [I-3, 4′-dehydro-oleandrin]
- concentration achieving similar reduction in ATP1A1 levels [1]: 4 nM
- concentrations causing reduction of steady-state ATP1A1 levels [1]: up to 16 nM
- effect of I-3 on steady-state ATP1A2 levels [2]: declined as levels of exemplary compound I-3 were increased
- concentration at which ATP1A3 levels reach a maximum [3]: 24 to 32 nM
- concentration up to which ATP1A3 levels stayed unchanged [3]: up to 8 nM
- effect on steady-state GFAP levels [4]: not paralleled by significant changes
- effect on NKA β subunit levels [11]: lesser, yet also pronounced reduction
- effect on Tuj-1 levels [12]: not paralleled by significant changes
- maximum reduction in steady-state PrP^C levels ([7]; 12 nM, one week, ReN VM cells): 84%
- concentration at which PrP^C signal rebounds / migrates differently in SDS-PAGE [7, 20]: 20 to 32 nM
- concentrations causing concentration-dependent reduction of steady-state PrP^C levels [7, 20]: 4 to 16 nM
- tolerated concentration [13]: up to 30 nM
- toxic concentration [13]: ≥ 40 nM
- concentration accumulated in the brain [14]: 38.8 nM
- time of highest levels in heart, kidney and liver [14]: 4 h
- pIC50 [15]: 7.34
- cytotoxicity relative to oleandrin [15]: slightly reduced relative to oleandrin
- oral effectiveness (oral versus intravenous lethal doses), increase relative to oleandrin ([16]; cats): approximately 20%
- oral toxicity relative to oleandrin ([16]; in vivo, po): almost twofold lower

Molecule: CC(=O)N[C@@H](CSC(=O)[C@]1([C@@H](O)C(C)C)NC(=O)[C@H](C)[C@@H]1O)C(=O)O [lactacystin]
- effect of co-incubated inhibitor on ouabain-induced reduction in ATP1A1 levels [1]: caused an increase in ATP1A1 steady-state levels
- effect of co-incubated inhibitor on ouabain-induced reduction in PrP^C levels [7]: failed to block

Molecule: C[C@H]1O[C@@H](O[C@H]2[C@@H](O)C[C@H](O[C@H]3[C@@H](O)C[C@H](O[C@H]4CC[C@@]5(C)[C@H](CC[C@@H]6[C@@H]5C[C@@H](O)[C@]5(C)[C@@H](C7=CC(=O)OC7)CC[C@]65O)C4)O[C@@H]3C)O[C@@H]2C)C[C@H](O)[C@@H]1O [digoxin]
- pIC50 [17]: ~7.30
- pIC50 [18]: ~7.60
- increase of cellular calcium levels [19]: approximately 20%
- pIC50 ([19]; Homo sapiens, 168 h, read-out: concentration giving half maximum intracellular calcium levels): 7.52
- level above which all three measures of cellular health dropped [13]: Above 10 nM
- time to dissociate from NKAs [9]: 18 h

Molecule: CCCC[C@@H](C=O)NC(=O)[C@H](CC(C)C)NC(=O)[C@H](CC(C)C)NC(C)=O [A6185, N-acetyl-Leu-Leu-norleucinal] (Ac-Leu-Leu-[Nle]-aldehyde)
- effect on steady-state ATP1A1 levels [1]: no apparent effect
- effect on steady-state ATP1A2 levels [2]: diminished
- effect on steady-state ATP1A3 levels [3]: no apparent effect
- effect on ouabain-induced formation of faster migrating GFAP bands [4]: blocked the excessive formation of faster migrating bands
- effect of co-incubated inhibitor on ouabain-induced reduction in PrP^C levels [7]: did neither prevent
- effect on steady-state PrP^C levels ([7]; ReN VM cells): diminished

Molecule: COC1C[C@H](O[C@H]2CC[C@]3(C)C4CC[C@]5(C)[C@@H](C6=CC(=O)OC6)[C@@H](OC(C)=O)C[C@]5(O)[C@@H]4CC[C@@H]3C2)OC(C)[C@@H]1O (stereo partly drawn) [oleandrin, acetic acid [(3S,5R,10S,13R,14S,16S,17′R)-14-hydroxy-3-[[(2R,4S,5S,6S)-5-hydroxy-4-methoxy-6-methyl-2-tetrahydropyranyl]oxy]-10,13-dimethyl-17-(5-oxo-2H-furan-3-yl)-1,2,3,4,5,6,7,8,9,11,12,15,16,17-tetradecahydrocyclopenta[a]phenanthren-16-yl] ester]
- concentration achieving similar reduction in ATP1A1 levels [1]: 4 nM
- concentration at which ATP1A1 levels rebound / increase [1]: around 2 nM
- potency of oleandrin relative to ouabain for similar reduction of ATP1A1 and PrP^C ([7]; 7-day treatment, differentiated ReN VM cells): approximately tenfold higher potency; also recorded: tenfold lower levels
- tolerated concentration [13]: up to 2 nM
- brain levels relative to other organs [14]: lowest in the brain
- time of rapid increase in heart, kidney and liver [14]: 2 h

Molecule: bafilomycin
- effect of co-incubated inhibitor on ouabain-induced reduction in ATP1A1 levels [1]: rescued
- effect of co-incubated inhibitor on ouabain-induced reduction in PrP^C levels [7]: rescued
